B1: ThFhb7: de-epoxidase from Thinopyrum ponticum; polypeptide having epoxy group-removing catalytic activity, amino acid sequence SEQ ID NO: 36, gene SEQ ID NO: 1 (protein, listed as Elytrigia ponticum)
chain: MATSASTSTPIIPTAIAGAPPVAGTCCAVAPTLSALALAPLAVPTTTTTVLMPAISSVAASLAVPACALPAAGSAPATLPIIHAPATASLVGASPAIAATLGATTPASGAGALPPPGLLATAVGAAMPGLLIPLSGIAASPGLAATAAPASAVAAAPTAHVGLMVHGLPLAPATAAVTLAGPVAAAGLSSTAALGMVGGAAALMMGSLAAMLGALAALPALAASGPPLLGGAATTAAMIVGGTLAMMAATLPVSGTGGAAACHGAIPGGLHAALALTAGVL

Key:
Details in all cases: in vivo
[1] = test system: ThFhb7; set-up: species or system Thinopyrum ponticum
[2] = test system: F. graminearum
[3] = test system: F. graminearum; remark: listed apart in the source
[4] = test system: F. graminearum; remark: listed apart in the source

Molecule | conversion into glutathione adducts in transgenic wheat overexpressing ThFhb7 [1] | number of diseased spikelets vs control receptor material [2] | diseased spot area on leaves vs KN199 [3] | disease spot area of ex-vivo leaves vs receptor material [4]
CC(=O)O[C@@H]1C[C@]2(C)[C@@]3(CO)[C@H](O)C(=O)C(C)=C[C@H]3O[C@H]1[C@@]21CO1 [3-ADON, 3-acetyl-deoxynivalenol] | efficiently catalyzed into glutathione adducts | – | – | –
CC(=O)OC[C@]12[C@H](O)C(=O)C(C)=C[C@H]1O[C@@H]1[C@H](O)C[C@@]2(C)[C@]12CO2 [15-ADON, 15-acetyl-deoxynivalenol] | efficiently catalyzed into glutathione adducts | – | – | –
CC1=C[C@H]2O[C@@H]3[C@H](O)C[C@](C)([C@@]2(CO)[C@H](O)C1=O)[C@]31CO1 [DON, deoxynivalenol] | efficiently catalyzed into glutathione adducts | – | – | –
CC1=C[C@H]2O[C@@H]3[C@H](O)[C@@H](O)[C@](C)([C@@]2(CO)[C@H](O)C1=O)[C@]31CO1 [NIV, nivalenol] | efficiently catalyzed into glutathione adducts | – | – | –
B1 | – | significantly less | significantly reduced | significantly reduced

Source: patent publication US12637687B2, “Nucleic acid molecules, polypeptides having epoxy group-removing catalytic activity and use thereof” (SHANDONG AGRICULTURAL UNIVERSITY, priority 2020, dated 2026)
